Results taken from publication PMC9653166 (Journal of medicinal chemistry, 2022).

Assays:
GOT1 acetylation = GOT1 acetylation Western blot in pancreatic cancer cell lines; assay type: cell-based
Sirt3 [1] = target: T1, Sirt3 (Homo sapiens, UniProt Q9NTG7); experiment: Coupled enzymatic deacetylation assay, Sirt3 with ACS2-acK642 peptide; assay type: biochemical; settings: coupled assay, ACS2 peptide, 10 and 100 μM compound
T1 sequence (Q9NTG7 114-380): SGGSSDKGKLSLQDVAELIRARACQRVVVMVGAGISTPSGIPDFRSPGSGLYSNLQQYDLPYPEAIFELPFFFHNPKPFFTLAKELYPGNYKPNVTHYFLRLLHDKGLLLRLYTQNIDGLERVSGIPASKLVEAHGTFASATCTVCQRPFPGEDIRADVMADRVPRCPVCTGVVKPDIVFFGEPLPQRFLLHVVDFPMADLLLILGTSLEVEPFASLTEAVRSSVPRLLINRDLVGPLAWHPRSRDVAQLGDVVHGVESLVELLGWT

Sirt1 = target: T2, Sirt1 (Homo sapiens, UniProt Q96EB6); experiment: Coupled enzymatic deacetylation assay, Sirt1 with p53-acK381 peptide; assay type: biochemical; settings: 10 and 100 μM compound
T2 sequence (Q96EB6 1-747): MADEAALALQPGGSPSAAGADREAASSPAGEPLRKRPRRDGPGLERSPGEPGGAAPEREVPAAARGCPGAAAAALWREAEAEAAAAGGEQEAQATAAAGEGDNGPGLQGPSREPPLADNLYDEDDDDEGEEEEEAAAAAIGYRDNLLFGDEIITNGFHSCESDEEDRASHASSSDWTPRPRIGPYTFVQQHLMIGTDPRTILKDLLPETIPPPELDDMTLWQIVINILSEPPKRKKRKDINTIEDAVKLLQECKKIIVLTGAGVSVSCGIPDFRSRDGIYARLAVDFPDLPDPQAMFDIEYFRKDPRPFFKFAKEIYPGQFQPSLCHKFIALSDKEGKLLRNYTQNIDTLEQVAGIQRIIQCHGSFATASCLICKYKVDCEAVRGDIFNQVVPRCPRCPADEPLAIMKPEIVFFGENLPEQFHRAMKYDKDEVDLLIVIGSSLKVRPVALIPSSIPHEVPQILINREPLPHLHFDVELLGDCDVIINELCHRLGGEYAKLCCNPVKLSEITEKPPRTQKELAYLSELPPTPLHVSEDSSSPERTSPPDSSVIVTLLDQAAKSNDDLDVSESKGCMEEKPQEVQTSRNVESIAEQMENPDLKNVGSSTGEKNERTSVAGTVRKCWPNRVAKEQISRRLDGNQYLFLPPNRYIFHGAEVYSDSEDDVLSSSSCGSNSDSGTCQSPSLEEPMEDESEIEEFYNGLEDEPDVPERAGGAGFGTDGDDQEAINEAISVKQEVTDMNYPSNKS

Sirt3 [2] = target: T1, Sirt3; experiment: Microscale thermophoresis binding to Sirt3
Sirt5 [3] = target: T3, Sirt5 (Homo sapiens, UniProt Q9NXA8); experiment: PDC deacylation assay: PDHA1 desuccinylation by recombinant Sirt5; assay type: biochemical; settings: 100 μM compound, PDHA1 from porcine heart tissue
T3 sequence (Q9NXA8 37-310): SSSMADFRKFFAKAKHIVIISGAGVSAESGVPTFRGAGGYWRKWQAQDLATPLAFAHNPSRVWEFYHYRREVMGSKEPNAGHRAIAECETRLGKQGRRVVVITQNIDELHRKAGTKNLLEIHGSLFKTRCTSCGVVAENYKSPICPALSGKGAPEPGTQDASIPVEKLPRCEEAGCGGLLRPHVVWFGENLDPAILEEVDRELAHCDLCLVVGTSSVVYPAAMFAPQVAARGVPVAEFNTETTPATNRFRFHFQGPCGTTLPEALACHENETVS

Sirt2 = target: T4, Sirt2 (Homo sapiens, UniProt Q8IXJ6); experiment: Coupled enzymatic deacetylation assay, Sirt2 with α-tubulin-acK25 peptide; assay type: biochemical; settings: coupled assay, 10 and 100 μM compound
T4 sequence (Q8IXJ6 43-356): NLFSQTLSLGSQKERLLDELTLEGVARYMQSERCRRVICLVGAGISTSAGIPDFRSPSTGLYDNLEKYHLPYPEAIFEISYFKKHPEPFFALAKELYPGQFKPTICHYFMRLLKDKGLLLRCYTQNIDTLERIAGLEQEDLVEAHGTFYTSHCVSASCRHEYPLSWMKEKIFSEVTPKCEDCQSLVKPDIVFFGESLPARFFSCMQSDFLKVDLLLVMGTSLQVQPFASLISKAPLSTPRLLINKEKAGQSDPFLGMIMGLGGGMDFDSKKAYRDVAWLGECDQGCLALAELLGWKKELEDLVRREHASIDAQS

Sirt4 = target: T5, Sirt4 (Homo sapiens, UniProt Q9Y6E7); experiment: Sirt4 activity test; assay type: biochemical; settings: 100 μM compound
T5 sequence (Q9Y6E7 29-314): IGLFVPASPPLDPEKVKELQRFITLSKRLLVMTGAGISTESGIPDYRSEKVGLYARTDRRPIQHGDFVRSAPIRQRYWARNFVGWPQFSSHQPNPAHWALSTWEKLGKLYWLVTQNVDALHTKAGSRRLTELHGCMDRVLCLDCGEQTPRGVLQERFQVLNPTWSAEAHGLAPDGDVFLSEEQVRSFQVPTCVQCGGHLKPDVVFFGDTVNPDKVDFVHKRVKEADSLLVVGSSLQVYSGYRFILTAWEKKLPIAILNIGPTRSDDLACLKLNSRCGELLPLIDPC

Sirt5 [4] = target: T6, Sirt5 (Homo sapiens, UniProt Q9NXA8); experiment: NAD+ titration kinetics of Sirt5; assay type: biochemical; settings: in presence of 200 μM compound (without compound 1.6 ± 0.1)
T6 sequence (Q9NXA8 34-302): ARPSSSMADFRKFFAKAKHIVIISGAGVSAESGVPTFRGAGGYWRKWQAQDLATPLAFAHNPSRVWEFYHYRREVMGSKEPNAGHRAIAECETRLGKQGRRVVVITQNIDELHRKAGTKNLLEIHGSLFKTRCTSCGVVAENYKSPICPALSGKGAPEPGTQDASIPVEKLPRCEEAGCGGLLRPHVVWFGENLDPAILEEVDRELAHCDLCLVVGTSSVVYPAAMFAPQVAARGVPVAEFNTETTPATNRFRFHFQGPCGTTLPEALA

GDH = GDH activity assay in MDA-MB-231 cell lysates; assay type: cell-based, human; settings: wild-type MDA-MB-231 cells, 50 μM, 4 or 24 h
Sirt5 [5] = target: T6, Sirt5; experiment: MS-based desuccinylation assay, Sirt5 with CPS1-succK537; assay type: biochemical; settings: 100 μM compound
glutaminase (GLS) = experiment: GLS activity assay in MDA-MB-231 cell lysates; assay type: cell-based, human; settings: MDA-MB-231 cells, 50 μM, 4 and 24 h
Sirt5 [6] = target: T6, Sirt5; experiment: Coupled enzymatic desuccinylation assay, Sirt5 with CPS1-succK537 peptide; assay type: biochemical
MDA-MB-231 cells = experiment: Ammonia level assay, MDA-MB-231 cells; assay type: cell-based, human; settings: 50 μM, 4 and 24 h
Sirt6 = Sirt6 (Homo sapiens, UniProt Q8N6T7); experiment: Sirt6 activity test; assay type: biochemical; settings: 100 μM compound
Sirt6, sequence (Q8N6T7 whole entry): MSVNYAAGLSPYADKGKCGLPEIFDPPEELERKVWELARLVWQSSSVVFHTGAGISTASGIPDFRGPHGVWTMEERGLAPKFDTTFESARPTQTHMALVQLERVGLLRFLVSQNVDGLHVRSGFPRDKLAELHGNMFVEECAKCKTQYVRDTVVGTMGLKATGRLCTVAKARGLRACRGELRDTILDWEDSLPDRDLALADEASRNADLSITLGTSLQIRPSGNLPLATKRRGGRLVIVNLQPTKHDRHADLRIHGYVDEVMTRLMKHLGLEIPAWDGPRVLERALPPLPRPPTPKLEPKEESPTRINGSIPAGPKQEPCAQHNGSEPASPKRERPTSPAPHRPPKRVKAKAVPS

- Effect on Sirt3 activity (in words) (Sirt3 [1]): no significant effects
- Effect on Sirt1 activity (in words) (Sirt1): no significant effects
- Kd (Sirt3 [2]): 138 ± 37 µM
- Sirt5-dependent desuccinylation of PDHA1 (Sirt5 [3]): clearly enhanced
- Effect on Sirt2 activity (in words) (Sirt2): no significant effects
- Effect on Sirt4 (Sirt4): weak, partial inhibition
- NAD+ kinetics vmax of Sirt5 (Sirt5 [4]): 2.3 ± 0.1 nmol/mg/min
- EC50 (Sirt5 [6]): ~40 µM
- Sirt5 activation (CPS1-succK537 desuccinylation) (Sirt5 [6]; 100 μM compound): 3- to 3.5 fold
- Maximum activation of Sirt5 (Sirt5 [6]; titration, beyond 200 μM compound concentration): 5 fold
- Effect on Sirt6 (Sirt6): weak, partial inhibition
Structure (SMILES): CCOC(=O)C1=CN(C(=O)c2ccccc2)C=C(C(=O)OCC)C1c1ccsc1 [Compound 30, Diethyl 1-Benzoyl-4-(thiophen-3-yl)-1,4-dihydropyridine-3,5-dicarboxylate]
- GOT1 acetylation (GOT1 acetylation; S2–013 and Capan1 cell lines, 20 μM, 24 h): decrease GOT1 acetylation
- Effect on GOT1 acetylation (GOT1 acetylation; SIRT5 knockout KPC and KPCS cell lines): negligible
- GDH activity in cell lysates (GDH): decreased GDH activity
- Sirt5 activation in MS-based assay (Sirt5 [5]): confirmed the activation of Sirt5-dependent desuccinylation
- GLS activity in cell lysates (glutaminase (GLS)): decreased GLS activity
- Ammonia accumulation (MDA-MB-231 cells): blocked ammonia accumulation
